Values joined by “and” are separate entries in the source; they are usually repeats but may differ in a detail not shown here. Identical values can stand only once.
Conditions: Liquid, Transpiration method

CCOC(=O)C(C)O (racemic) [DL-ethyl lactate]
Conditions | vapor or sublimation pressure
274.6 K | 0.0432 kPa
276.6 K | 0.0506 kPa
279.6 K | 0.0659 kPa
281.4 K | 0.0743 kPa
283.6 K | 0.0901 kPa
284.6 K | 0.095 kPa
285.8 K | 0.1032 kPa
287.6 K | 0.1266 kPa and 0.1265 kPa
288.4 K | 0.1302 kPa
290.2 K | 0.1492 kPa
290.3 K | 0.1456 kPa
291.1 K | 0.162 kPa
293.5 K | 0.1923 kPa
296.4 K | 0.2396 kPa
298.5 K | 0.2828 kPa
301.5 K | 0.3655 kPa
302.5 K | 0.3751 kPa
304.5 K | 0.4491 kPa
305.3 K | 0.4793 kPa
307.2 K | 0.5251 kPa
308.2 K | 0.5766 kPa
310.1 K | 0.6332 kPa and 0.6327 kPa
311.3 K | 0.6892 kPa

CCCCOC(=O)C(C)O (stereo not given) [butyl 2-hydroxypropanoate]
Conditions | vapor or sublimation pressure [kPa]
273.6 K | 0.00576
274.1 K | 0.00627
276.6 K | 0.00823
277.2 K | 0.00868
279.2 K | 0.00996
280.7 K | 0.0112
281.8 K | 0.0133
283.2 K | 0.0141
285.4 K | 0.0178
287.3 K | 0.0215
290.3 K | 0.0272
291.8 K | 0.0324
293.3 K | 0.0375
296.2 K | 0.0442
299.2 K | 0.0601
302.2 K | 0.0712
305.1 K | 0.0952
308.1 K | 0.1148
308.5 K | 0.1253
311 K | 0.1483
313 K | 0.1639
314.5 K | 0.1944
317 K | 0.2271
318.9 K | 0.2521
322.9 K | 0.3526

CCOC(=O)[C@@H](C)O [ethyl D-lactate]
Conditions | vapor or sublimation pressure
274.4 K | 0.0419 kPa
276.4 K | 0.0495 kPa
278.2 K | 0.0568 kPa
280.3 K | 0.0665 kPa
282.3 K | 0.0765 kPa
283.2 K | 0.0834 kPa
285.4 K | 0.0995 kPa
286.2 K | 0.1081 kPa
289.2 K | 0.1358 kPa
291.3 K | 0.1583 kPa
293.2 K | 0.1868 kPa
295.2 K | 0.2114 kPa
297.3 K | 0.2551 kPa
298.4 K | 0.2762 kPa and 0.2718 kPa
299.2 K | 0.2886 kPa
301.3 K | 0.3466 kPa
303.2 K | 0.3937 kPa
305.2 K | 0.4603 kPa
306.2 K | 0.479 kPa
307.3 K | 0.5225 kPa
308.2 K | 0.5581 kPa
308.3 K | 0.5768 kPa
310.3 K | 0.6462 kPa
311.3 K | 0.7011 kPa
313.2 K | 0.7624 kPa
314.2 K | 0.8127 kPa
316.3 K | 0.9517 kPa
318.2 K | 1.048 kPa

CC(C)OC(=O)[C@H](C)O [isopropyl (S)-2-hydroxypropionate]
Conditions | vapor or sublimation pressure [kPa]
283.4 K | 0.0862
288.3 K | 0.1239
293.3 K | 0.1774
298.3 K | 0.2401
303.2 K | 0.3239
306.8 K | 0.4055

CCCCCOC(=O)C(C)O (stereo not given) [pentyl 2-hydroxypropanoate]
Conditions | vapor or sublimation pressure [kPa]
303.4 K | 0.026
305.3 K | 0.0299
307.3 K | 0.038
309.3 K | 0.0421
311.4 K | 0.0517
313.3 K | 0.0565
315.4 K | 0.0714
317.4 K | 0.0833
319.4 K | 0.0946
321.4 K | 0.1069
323.4 K | 0.1269
325.4 K | 0.1418
327.4 K | 0.1665
329.4 K | 0.1855
331.3 K | 0.2174
333.3 K | 0.2476
335.3 K | 0.2794
337.3 K | 0.3145
339.3 K | 0.3534
341.3 K | 0.4164
343.2 K | 0.4684

CCCOC(=O)C(C)O (stereo not given) [propyl 2-hydroxypropanoate]
Conditions | vapor or sublimation pressure
273.5 K | 0.0152 kPa
274.6 K | 0.0171 kPa
276.2 K | 0.019 kPa
277.7 K | 0.0222 kPa
279.9 K | 0.0274 kPa
282.1 K | 0.0332 kPa
283.3 K | 0.0359 kPa
286.2 K | 0.0489 kPa and 0.048 kPa
287.8 K | 0.055 kPa
290.3 K | 0.0664 kPa
292.3 K | 0.0793 kPa
294.3 K | 0.09 kPa
298.2 K | 0.1194 kPa
299.2 K | 0.1376 kPa and 0.1392 kPa
301.2 K | 0.1565 kPa
301.4 K | 0.1625 kPa
303.3 K | 0.1866 kPa
304.2 K | 0.1915 kPa
305.3 K | 0.2068 kPa
307.9 K | 0.268 kPa
308.1 K | 0.256 kPa
310.3 K | 0.3053 kPa
312.1 K | 0.3377 kPa
313.4 K | 0.3713 kPa
313.6 K | 0.3614 kPa
315.4 K | 0.4264 kPa
316 K | 0.4342 kPa
317 K | 0.4541 kPa
317.4 K | 0.4789 kPa
319.4 K | 0.5467 kPa
320 K | 0.5661 kPa
321.4 K | 0.6113 kPa
323 K | 0.6633 kPa
323.4 K | 0.7043 kPa
325.4 K | 0.8342 kPa
327.3 K | 0.9235 kPa
330.3 K | 1.079 kPa

— the NIST ThermoML archive (doi:10.1016/j.jct.2018.07.029)
